Test results published in patent US20060142178A1, “Method of treating cancer” (priority 2002, published 2006).

Key:
Assay type in all cases: biochemical
[1] = target: T1, ΔPH-Akt2 (Homo sapiens, UniProt P31751); experiment: Akt kinase assay, GSK3 peptide substrate, Akt2 delta PH; settings: pleckstrin homology domain deleted Akt2, GSK3 peptide substrate
T1 construct: PCR was performed using the full length Akt2 gene as template; biotin tag (from pS2neo vector); made in house; host or cells: Drosophila S2 cells

[2] = target: T2, Human Akt3 (Homo sapiens, UniProt Q9Y243); experiment: Akt kinase assay, GSK3 peptide substrate, Akt3; settings: activated full length Akt3, GSK3 peptide substrate
T2 construct: a middle T tag was added to the 5′ end of the full length Akt3 clone; biotin tag (from pS2neo vector); made in house; host or cells: Drosophila S2 cells
Procedure: (§1) Akt and Akt pleckstrin homology domain deletions were activated (Alessi et al. Current Biology 7:261-269) in a reaction containing 10 nM PDK1 (Upstate Biotechnology, Inc.), lipid vesicles (10 μM phosphatidylinositol-3,4,5-trisphosphate—Metreya, Inc, 100 μM phosphatidylcholine and 100 μM phosphatidylserine—Avanti Polar lipids, Inc.) and activation buffer (50 mM Tris pH7.4, 1.0 mM DTT, 0.1 mM EGTA, 1.0 μM Microcystin-LR, 0.1 mM ATP, 10 mM MgCl2, 333 μg/ml BSA and 0.1 mM EDTA). The reaction was incubated at 22° C. for 4 hours. Aliquots were flash frozen in liquid nitrogen.
(§2) Activated AKT isoforms and pleckstrin homology domain deletion constructs were assayed utilizing a GSK-derived biotinylated peptide substrate. The extent of peptide phosphorylation was determined by Homogeneous Time Resolved Fluorescence […] using a lanthanide chelate (Lance)-coupled monoclonal antibody specific for the phosphopeptide in combination with a streptavidin-linked allophycocyanin (SA-APC) fluorophore which will bind to the biotin moiety on the peptide. […]
(§3) The reaction is assembled by adding 16 μL of the ATP/MgCl2 working solution to the appropriate wells of a 96-well microtiter plate. […] The stopped reactions were incubated at room temperature for at least 30 min and then read on the Discovery instrument. […]

[3] = target: T3, Human Akt2 (Homo sapiens, UniProt P31751); experiment: Akt kinase assay, GSK3 peptide substrate, Akt2; settings: activated full length Akt2, GSK3 peptide substrate
T3 construct: a middle T tag was added to the 5′ end of the full length Akt2 using the PCR primer; biotin tag (from pS2neo vector); made in house; host or cells: Drosophila S2 cells
Procedure: as §1, §2, §3

[4] = target: T4, Human Akt1 (Homo sapiens, UniProt P31749); experiment: Akt kinase assay, GSK3 peptide substrate, Akt1; settings: activated full length Akt1, GSK3 peptide substrate
T4 construct: a middle T tag was added to the 5′ end of the full length Akt1 gene; biotin tag (from pS2neo vector); made in house; host or cells: Drosophila S2 cells
Procedure: as §1, §2, §3

[5] = target: T5, PKA catalytic subunit (Bos taurus, UniProt P00517); experiment: PKA assay (counter screen); settings: Kemptide substrate; read-out: Counter screens IC50 (μM) PKA
T5 construct: purchased UBI (Upstate Biotechnology, Inc.) 14-114
Procedure: The reactions were stopped by adding 50 μl of 100 mM EDTA and 100 mM sodium pyrophosphate and mixing.
After the final wash, the filters were allowed to air dry.

[6] = target: T6, ΔPH-Akt1 (Homo sapiens, UniProt P31749); experiment: Akt kinase assay, GSK3 peptide substrate, Akt1 delta PH; settings: pleckstrin homology domain deleted Akt1, GSK3 peptide substrate
T6 construct: PCR deletion mutagenesis was done using the full length Akt1 gene in the pS2neo vector as template; biotin tag (from pS2neo vector); made in house; host or cells: Drosophila S2 cells

[7] = tested on: PKC; experiment: PKC assay (counter screen); settings: Myelin basic protein substrate; read-out: Counter screens IC50 (μM) PKC
Procedure: Each PKC assay consists of the following components:
The assays were assembled in 96 deep-well assay plates. Inhibitor or vehicle (10 μl) was added to 5.0 μl of ^33P-ATP. Reactions were initiated with the addition of the PKC/Myelin Basic Protein working solution and mixing. Reactions were incubated at 30° C. for 20 min. The reactions were stopped by adding 50 μl of 100 mM EDTA and 100 mM sodium pyrophosphate and mixing. Phosphorylated Mylein Basic Protein was collected on PVDF membranes in 96 well filter plates and quantitated by scintillation counting.

T2 sequence (Q9Y243 whole entry): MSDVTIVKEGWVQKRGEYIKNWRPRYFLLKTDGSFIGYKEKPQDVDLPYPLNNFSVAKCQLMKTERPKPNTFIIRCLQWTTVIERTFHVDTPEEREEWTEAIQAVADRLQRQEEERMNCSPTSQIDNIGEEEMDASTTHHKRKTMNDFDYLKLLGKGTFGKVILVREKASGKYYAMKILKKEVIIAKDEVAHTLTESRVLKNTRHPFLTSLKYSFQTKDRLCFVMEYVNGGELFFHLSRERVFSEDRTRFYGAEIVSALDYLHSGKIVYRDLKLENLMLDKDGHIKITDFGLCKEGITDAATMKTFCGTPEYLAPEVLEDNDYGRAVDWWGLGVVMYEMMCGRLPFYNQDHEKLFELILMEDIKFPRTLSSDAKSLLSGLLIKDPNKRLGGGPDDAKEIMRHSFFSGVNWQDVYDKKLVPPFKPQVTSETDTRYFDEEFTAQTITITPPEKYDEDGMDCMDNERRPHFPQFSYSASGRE
T3 sequence (P31751 whole entry): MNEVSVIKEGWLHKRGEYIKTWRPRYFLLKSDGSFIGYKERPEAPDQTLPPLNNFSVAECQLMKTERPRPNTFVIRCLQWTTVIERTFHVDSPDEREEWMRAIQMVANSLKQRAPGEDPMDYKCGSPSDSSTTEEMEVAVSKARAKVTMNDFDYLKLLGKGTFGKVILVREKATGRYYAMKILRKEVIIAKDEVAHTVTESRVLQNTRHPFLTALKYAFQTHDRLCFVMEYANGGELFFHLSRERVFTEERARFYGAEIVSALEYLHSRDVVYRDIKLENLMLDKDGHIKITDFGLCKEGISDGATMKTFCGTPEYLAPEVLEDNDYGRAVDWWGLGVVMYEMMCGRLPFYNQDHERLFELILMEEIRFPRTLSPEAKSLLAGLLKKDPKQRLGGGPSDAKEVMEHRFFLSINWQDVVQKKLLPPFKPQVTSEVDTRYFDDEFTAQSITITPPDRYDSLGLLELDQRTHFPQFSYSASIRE
T6 sequence (P31749 with tags, fused parts or gaps): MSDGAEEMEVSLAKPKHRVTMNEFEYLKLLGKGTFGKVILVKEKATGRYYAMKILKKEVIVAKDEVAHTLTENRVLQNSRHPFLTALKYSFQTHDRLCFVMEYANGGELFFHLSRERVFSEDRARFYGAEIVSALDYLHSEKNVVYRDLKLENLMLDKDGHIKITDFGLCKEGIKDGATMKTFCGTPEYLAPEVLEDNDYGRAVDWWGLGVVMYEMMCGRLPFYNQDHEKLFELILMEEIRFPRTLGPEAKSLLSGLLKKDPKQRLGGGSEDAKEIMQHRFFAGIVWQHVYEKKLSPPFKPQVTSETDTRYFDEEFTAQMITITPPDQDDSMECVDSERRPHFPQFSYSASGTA
T4 sequence (P31749 whole entry): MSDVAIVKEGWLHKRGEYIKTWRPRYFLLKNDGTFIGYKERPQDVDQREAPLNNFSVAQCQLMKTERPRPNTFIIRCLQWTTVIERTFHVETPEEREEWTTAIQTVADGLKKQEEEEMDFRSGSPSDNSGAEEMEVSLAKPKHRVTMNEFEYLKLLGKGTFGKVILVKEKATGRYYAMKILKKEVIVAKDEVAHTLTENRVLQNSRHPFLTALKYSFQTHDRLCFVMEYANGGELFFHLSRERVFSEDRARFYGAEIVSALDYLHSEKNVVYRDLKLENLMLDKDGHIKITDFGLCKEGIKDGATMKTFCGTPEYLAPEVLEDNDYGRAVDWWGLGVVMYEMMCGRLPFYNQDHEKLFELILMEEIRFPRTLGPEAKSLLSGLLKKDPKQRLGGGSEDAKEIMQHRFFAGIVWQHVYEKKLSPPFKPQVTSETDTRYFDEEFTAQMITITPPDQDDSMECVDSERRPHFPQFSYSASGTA
T1 sequence (P31751 with tags, fused parts or gaps): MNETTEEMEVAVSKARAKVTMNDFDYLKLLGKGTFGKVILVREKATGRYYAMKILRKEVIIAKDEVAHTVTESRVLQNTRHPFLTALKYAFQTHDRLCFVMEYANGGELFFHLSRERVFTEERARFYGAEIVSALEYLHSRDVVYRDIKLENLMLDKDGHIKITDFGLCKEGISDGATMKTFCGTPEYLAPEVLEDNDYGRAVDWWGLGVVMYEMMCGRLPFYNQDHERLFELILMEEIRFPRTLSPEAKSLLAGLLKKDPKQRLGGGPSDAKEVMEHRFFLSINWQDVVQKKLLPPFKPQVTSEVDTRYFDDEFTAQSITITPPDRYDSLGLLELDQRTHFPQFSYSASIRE

Compound: CN(C)CC(C)(C)CNc1nn2c(-c3ccccc3)nnc2cc1C1CCC1 [Compound 1, N′-(7-Cyclobutyl-3-phenyl-[1,2,4]triazolo[4,3-b]pyridazin-6-yl)-2,2,N,N-tetramethyl-propane-1,3-diamine]
- IC50 [1]: > 100 µM

Compound: COc1cc(-c2[nH]c(C3CCCN3C)nc2-c2ccncc2)ccc1Cl (stereo not shown) [Compound 19-11, 1-methyl-2-[5-(4-chloro-3-methoxyphenyl)-4-pyridin-4-yl-1H-imidazol-2-yl]-pyrrolidine]
- IC50 [2]: 1.4 µM
- IC50 [3]: > 50 µM
- IC50 [4]: 51.7 µM
- IC50 [5]: 0.076 µM
- IC50 [6]: > 50 µM
- IC50 [7]: 0.65 µM

Compound: OCCOc1nn2c(-c3ccccc3)nnc2cc1-c1ccccc1 [Compound 8, 6-(2-Hydroxyethyl)oxy-3,7-diphenyl-[1,2,4]triazolo[4,3-b]pyridazine]
- IC50 [2]: > 50 µM
- IC50 [3]: > 50 µM
- IC50 [6]: > 50 µM
